Key:
NatL2 [1] = target: T1, NatL2 (Streptomyces sp. Tu 6176, UniProt A0A022MRT4); experiment: X-ray crystallography (soaked crystal); format: binding
T1 construct: N-terminal hexahistidine-tagged, expressed in E. coli; homodimer, structural Zn2+; residues 5-436 traced (C-terminal extension 405-436)
T1 sequence (A0A022MRT4 1-436): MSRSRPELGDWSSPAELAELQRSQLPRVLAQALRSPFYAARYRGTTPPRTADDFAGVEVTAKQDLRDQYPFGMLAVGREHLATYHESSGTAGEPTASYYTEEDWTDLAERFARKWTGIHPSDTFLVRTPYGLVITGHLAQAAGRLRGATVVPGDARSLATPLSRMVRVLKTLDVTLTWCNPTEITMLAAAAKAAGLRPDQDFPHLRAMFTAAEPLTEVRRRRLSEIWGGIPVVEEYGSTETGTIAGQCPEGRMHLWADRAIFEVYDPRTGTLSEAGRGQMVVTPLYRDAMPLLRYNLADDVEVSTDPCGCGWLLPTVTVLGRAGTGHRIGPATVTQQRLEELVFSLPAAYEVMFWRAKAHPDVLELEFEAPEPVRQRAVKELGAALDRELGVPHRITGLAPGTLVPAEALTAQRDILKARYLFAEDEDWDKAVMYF

NatL2 [2] = target: T1, NatL2; experiment: X-ray crystallography, […] Å; format: binding; conditions: crystallised in the presence of ATP; density modelled as AMP; Lys418 from other monomer

## Nc1ncnc2c1ncn2[C@@H]1O[C@H](COP(=O)(O)OP(=O)(O)NP(=O)(O)O)[C@@H](O)[C@H]1O [AMPPNP]
NatL2 [1]; nucleotide site, binary complex and ternary with 3-HAA, no Mg2+ density
  X-ray crystallography (soaked crystal): These crystals were soaked with AMPPNP and the resulting complex was essentially identical

## O=C(O)c1ccccc1O [SA]
NatL2 [1]; soak of AMP:3-HAA crystals, two SA molecules in subunit A, no AMP, SA1 in 3-HAA1 pocket, SA2 in second substrate pocket, not turned over
  X-ray crystallography (soaked crystal): In subunit A, two molecules of SA are bound but no AMP

## Nc1ncnc2c1ncn2[C@@H]1O[C@H](COP(=O)(O)O)[C@@H](O)[C@H]1O [AMP]
NatL2 [2]
  X-ray crystallography, 1.9 Å: Residual electron density in both monomers was best modelled as AMP not ATP

Source: publication PMC7204872, “The Biosynthesis of the Benzoxazole in Nataxazole Proceeds via an Unstable Ester and has Synthetic Utility” (Angewandte Chemie (International Ed. in English), 2020)
